Measurements: patent US4237135A, “2-(4-Ethyl-1-piperazinyl)-4-phenylquinoline, process for preparation thereof, and composition thereof” (Dainippon Pharmaceutical Co., Ltd., priority 1978, dated 1980)
Read-outs that look alike come from different tables or passages of the source.

Assays:
antidepressant activity = assay: Antidepressant activity, overall (Test 1); assay type: in vivo, male STD-ddY strain mice; male Wistar strain rats; details: for Antidepressant activity (in words): overall conclusion
Description: This effect was examined according to the method of […]. 2, 725 (1963)], using male STD-ddY strain mice weighing 20-25 g. […] Rectal temperature of each mouse was measured 4 hours later with a thermister (Shibaura Electric, BMG III-130). […] Male STD-ddY strain mice, weighing […], were used in groups of 10 mice each. […] The mice were tested for catalepsy 1 hour after the administration of test compounds. ED50 was calculated for each compound. […] Male STD-ddY strain mice, weighing 20-25 g, were used in groups of 10 mice each. […] Two hours after the tetrabenazine injection, the degree of eyelid closure (ptosis) was assessed on the basis of macroscopic scoring (0: no closure of the eyelid, 1: 1/4 closure, 2: 2/4 closure, 3: 3/4 closure and 4: complete closure), essentially according to the method of P. A. J. Janssen [Arzneim. Forsch. 15, 104 (1965)]. ED50 was calcuated for each compound. […] Male Wistar strain rats, weighing 240-260 g, which had developed mouse-killing behavior after ablation of the olfactory bulb according to the method of Z. P. Horovitz [Int. J. Neuropharmacol. 5, 405 (1966)], were used in groups of 15 animals each. […] ED50 was calculated for each compound.

[1] = test system: hypothermia induced by reserpine; assay: Anti-reserpine activity: antagonistic effect on hypothermia induced by reserpine; assay type: in vivo, male STD-ddY strain mice; details: p.o.; for ED50: Mus musculus, po, 4 h, reserpine 5 mg/kg i.p.
Description: Pharmacological experiments have been done on the compound of the present invention, some known and novel analogous compounds and an antidepressant on the market, as mentioned below. In the experiments, ED50 was calculated by Litchfield-Wilcoxon method. This effect was examined according to the method of […]. 2, 725 (1963)], using male STD-ddY strain mice weighing 20-25 g. […] Rectal temperature of each mouse was measured 4 hours later with a thermister (Shibaura Electric, BMG III-130).

[2] = test system: spontaneous and methamphetamine-induced locomotor activities; assay: Neuroleptics-like activity, overall (Test 2); assay type: in vivo, male STD-ddY strain mice; details: overall conclusion
[3] = test system: methamphetamine-induced locomotor activity; assay: Anti-methamphetamine effect (inhibitory effect on methamphetamine-induced locomotor activity); assay type: in vivo, male STD-ddY strain mice; details: for ED50: Mus musculus, ip, read-out: Anti-methamphetamine ED50; for Antagonizing methamphetamine-induced locomotor activity (in words): i.p.
Description: (§1) Pharmacological experiments have been done on the compound of the present invention, some known and novel analogous compounds and an antidepressant on the market, as mentioned below. In the experiments, ED50 was calculated by Litchfield-Wilcoxon method.
Male STD-ddY strain mice, weighing 20-25 g, were used in groups of 10 mice each. Groups of mice were injected intraperitoneally with 4 mg/kg of methamphetamine, and 30 minutes later each test compound was injected intraperitoneally in 3 different doses. One hour after the injection of methamphetamine, locomotor activity of each mouse was measured for 10 minutes with an Animex locomotor activity meter.

[4] = test system: spontaneous locomotor activity; assay: Inhibitory effect on spontaneous locomotor activity; assay type: in vivo, male STD-ddY strain mice; details: for ED50: Mus musculus, po, read-out: Spontan. locomotor ED50; for Inhibition of spontaneous locomotion (in words): p.o.
Description: as §1
Male mice of STD-ddY strain, weighing 20-25 g, were used in groups of 5 mice each. Each test compound was given orally to the mice in 5 different doses, and 2 hours later the spontaneous locomotor activity of each mouse was measured for 3 minutes by means of an Animex locomotor activity meter (made by Farad Electronics). ED50 was calculated for each compound. The ED50 means the dose of test compound in which the locomotor activity was reduced to 50% of that of control group receiving saline.

[5] = test system: catalepsy induced by reserpine; assay: Anti-reserpine activity: antagonistic effect on catalepsy induced by reserpine; assay type: in vivo, male STD-ddY strain mice; details: for ED50: Mus musculus, po, 1 h
Description: In the experiments, ED50 was calculated by Litchfield-Wilcoxon method. Male STD-ddY strain mice, weighing […], were used in groups of 10 mice each. […] The mice were tested for catalepsy 1 hour after the administration of test compounds. ED50 was calculated for each compound.

[6] = test system: ptosis induced by tetrabenazine; assay: Anti-tetrabenazine activity: antagonistic effect on ptosis induced by tetrabenazine; assay type: in vivo, male STD-ddY strain mice; details: Mus musculus, po; tetrabenazine 70 mg/kg i.p.; Table 2
Description: Pharmacological experiments have been done on the compound of the present invention, some known and novel analogous compounds and an antidepressant on the market, as mentioned below. In the experiments, ED50 was calculated by Litchfield-Wilcoxon method. Male STD-ddY strain mice, weighing 20-25 g, were used in groups of 10 mice each. […] Two hours after the tetrabenazine injection, the degree of eyelid closure (ptosis) was assessed on the basis of macroscopic scoring (0: no closure of the eyelid, 1: 1/4 closure, 2: 2/4 closure, 3: 3/4 closure and 4: complete closure), essentially according to the method of P. A. J. Janssen [Arzneim. Forsch. 15, 104 (1965)]. ED50 was calcuated for each compound.

tremorine-induced tremor = assay: Anti-tremorine activity (antagonistic effect on tremorine-induced tremor); assay type: in vivo, male STD-ddY strain mice; details: Mus musculus, po, read-out: Anti-tremorine activity ED50
Description: as §1
Male STD-ddY strain mice, weighing 20-25 g, were used in groups of 5 mice each. Each test compound was given orally to the mice in 5 different doses, and 2 hours later 20 mg/kg of tremorine was injected intraperitoneally. Half an hour after the injection of tremorine, each mouse was examined macroscopically for tremor severity, according to the rating scale with the scores 0, 1, 2, and 3 depending on the severity. ED50 was calculated for each compound. The ED50 means the dose of test compound in which the tremorine-induced tremor was inhibited by 50% in severity.

[7] = test system: brain 3-methoxy-4-hydroxyphenylethylene glycol sulfate (MOPEG-SO4); assay: Effect on brain monoamine metabolites: MOPEG-SO4; assay type: in vivo, male Wistar strain rats; details: 100 mg/kg p.o.; for Brain MOPEG-SO4, % of control: *P<0.01
Description: (§2) Each test compound was given orally to the rats in a dose of 100 mg/kg and, 1, 3 and 6 hours later the rats were sacrificed. […] The concentrations of the monoamine metabolites were calculated in terms of ng/g wet brain tissue and expressed as % of the concentrations of controls receiving saline.

[8] = test system: brain 5-hydroxyindoleacetic acid (5-HIAA); assay: Effect on brain monoamine metabolites: 5-HIAA; assay type: in vivo, male Wistar strain rats; details: 100 mg/kg p.o., *P<0.01
Description: as §2

[9] = test system: mouse-killing behavior of olfactory bulb-ablated rats; assay: Suppressing effect on mouse-killing behavior in olfactory bulb-ablated rats; assay type: in vivo, male Wistar strain rats; details: Rattus norvegicus, ip, 1 h, read-out: Suppressing effect on mouse-killing behavior of olfactory bulb-ablated rats, ED50
Description: as §1
Male Wistar strain rats, weighing 240-260 g, which had developed mouse-killing behavior after ablation of the olfactory bulb according to the method of Z. P. Horovitz [Int. J. Neuropharmacol. 5, 405 (1966)], were used in groups of 15 animals each. Each test compound was given intraperitoneally to the rats in 6 different doses, and 1 hours later the rats were each tested as to whether they killed a mouse or not. ED50 was calculated for each compound.

[10] = test system: brain homovanillic acid (HVA); assay: Effect on brain monoamine metabolites: HVA; assay type: in vivo, male Wistar strain rats; details: 100 mg/kg p.o.; for Brain HVA, % of control: *P<0.01
Description: as §2

[11] = Table 1, read-out: Anti-reserpine activity ED50, hypothermia
[12] = p.o., reserpine 5 mg/kg i.p., Table 1, read-out: Anti-reserpine activity ED50, catalepsy
[13] = Table 2, read-out: Anti-reserpine ED50, hypothermia
[14] = p.o., reserpine 5 mg/kg i.p., Table 2, read-out: Anti-reserpine ED50, catalepsy

Compound | ED50 [1, 11] | Neuroleptics-like activity (in words) [2] | ED50 ([3]; methamphetamine 4 mg/kg i.p.) | Antagonizing methamphetamine-induced locomotor activity (in words) [3] | ED50 ([4]; 2 hours after dosing) | Inhibition of spontaneous locomotion (in words) [4] | Antidepressant activity (in words) (antidepressant activity) | ED50 [1, 13] | ED50 [6] | ED50 [5, 14] | also measured
Clc1ccc2nc(N3CCN(c4ccccc4)CC3)cc(-c3ccccc3)c2c1 [Compound 2, 6Chloro-2-(4-phenyl-1-piperazinyl)-4-phenylquinoline] | > 100 mg/kg | not seen | > 30 mg/kg | devoid of both activities | > 200 mg/kg | devoid of both activities | – | – | – | – | Anti-reserpine activity (in words) (antidepressant activity; hypothermia and catalepsy, p.o.): devoid of the anit-reserpine activity; ED50 [5, 12]: > 100 mg/kg
CN(C)CCCN1c2ccccc2Sc2ccc(Cl)cc21 [Compound 7, 2chloro-10-(3-dimethylaminopropyl)phenothiazine] | – | – | – | – | – | – | – | – | – | – | ED50 [3]: 1 mg/kg; ED50 ([4]; 2 h): 7.4 mg/kg
CCCN1CCN(c2cc(-c3ccccc3)c3ccccc3n2)CC1.Cl.Cl [Compound 4, 2-(4-n-Propyl-1-piperazinyl)-4-phenylquinoline dihydrochloride] | – | – | 13.2 mg/kg | somewhat less potent | 62.2 mg/kg | as potent as compound A | inferior to compound A | 13.6 mg/kg | 8.2 mg/kg | 4.4 mg/kg | –
OC(CCN1CCCCC1)(c1ccccc1)C1CC2C=CC1C2 (stereo not shown) [Compound 8, 5-norbornen-2-yl-phenyl-1-piperidinepropanol] | – | – | – | – | – | – | – | – | – | – | ED50 (tremorine-induced tremor): 11.4 mg/kg
CN1CCN(c2cc(-c3ccccc3)c3ccccc3n2)CC1 [Compound 3, 2-(4-Methyl-1-piperazinyl)-4-phenylquinoline] | – | comparable to compound A | 12.9 mg/kg | somewhat less potent | 56.4 mg/kg | as potent as compound A | much less potent than the latter | 13.9 mg/kg | 10.4 mg/kg | 4.7 mg/kg | –
CCCCN1CCN(c2cc(-c3ccccc3)c3ccccc3n2)CC1.O=C(O)/C=C\C(=O)O.O=C(O)/C=C\C(=O)O [Compound 5, 2-(4-n-Butyl-1-piperazinyl)-4-phenylquinoline dimaleate] | – | – | 16.4 mg/kg | somewhat less potent | 50.6 mg/kg | as potent as compound A | inferior to compound A | 13.7 mg/kg | 29.9 mg/kg | 6.3 mg/kg | –
CN1CCN(c2cc(-c3ccccc3)c3cc(Cl)ccc3n2)CC1.Cl.Cl [Compound 1, 6-Chloro-2-(4-methyl-1-piperazinyl)-4-phenylquinoline dihydrochloride] | 30.8 mg/kg | not seen | > 30 mg/kg | devoid of both activities | > 200 mg/kg | devoid of both activities | – | – | – | – | Activity in antagonizing reserpine hypothermia relative to compound A ([1]; versus compound A): 5 times less active; ED50 [5, 12]: 20 mg/kg; Activity in antagonizing reserpine catalepsy relative to compound A ([5]; versus compound A, p.o.): 13 times less active
CN(C)CCCN1c2ccccc2CCc2ccccc21 [Compound 6, 5-(3-dimethylaminopropyl)-10,11-dihydro-5H-dibenz[b,f]azepine] | 21.5 mg/kg | not seen | – | devoid of both activities | – | devoid of both activities | – | 21.5 mg/kg | 4.9 mg/kg | – | Brain MOPEG-SO4 concentration / noradrenaline turnover (in words) [7]: significant decrease in brain MOPEG-SO4 concentration; Brain MOPEG-SO4, % of control ([7]; 1 hour): 87 % of control; Brain MOPEG-SO4, % of control ([7]; 3 hours): 80 % of control; Brain MOPEG-SO4, % of control ([7]; 6 hours): 70 % of control; Brain 5-HIAA, % of control ([8]; 1 hour): 88 % of control; Brain 5-HIAA, % of control ([8]; 3 hours): 84 % of control; Brain 5-HIAA, % of control ([8]; 6 hours): 73 % of control; ED50 [9]: 5.5 mg/kg; ED50 [3]: > 30 mg/kg; ED50 (tremorine-induced tremor): 48.3 mg/kg; Brain HVA concentration / dopamine turnover (in words) [10]: devoid of such activity; Brain HVA, % of control ([10]; 1 hour): 110 % of control; Brain HVA, % of control ([10]; 3 hours): 98 % of control; ED50 ([4]; 2 h): > 200 mg/kg; ED50 ([5]; read-out: Anti-reserpine ED50, catalepsy): 38.3 mg/kg; ED50 ([5]; read-out: Anti-reserpine activity ED50, catalepsy): 38.3 mg/kg
